Values quoted from earlier work, collected in patent US20070104896A1, “Optical film, polarizing plate and image display device” (FUJIFILM Corporation, priority 2005, published 2007).

conditions: pKa of a conjugated acid of the organic base; values in an aqueous solution

Question: Which pKa does the source give for Cc1ncc[nH]1 [b-12, 2-Methyl imidazole] here?
Answer: The pKa was 7.6.

Question: With CN1CCOCC1 [b-14, N-Methylmorpholine] as the compound, how does the pKa read?
Answer: The pKa was 7.8.

Question: With CN(C)C [b-18, Trimethylamine] as the compound, how does the pKa read?
Answer: The pKa was 9.9.

Question: For Cc1ccccn1 [b-7, 2-Methylpyridine], which pKa is on record?
Answer: The pKa was 6.1.

Question: Which pKa does the source give for Cc1cccc(C)n1 [b-10, 2,6-Dimethylpyridine] here?
Answer: The pKa was 7.0.

Question: Which pKa does the source give for COCCNCCOC [b-15, Bis(2-methoxyethyl)amine] here?
Answer: Its pKa is 8.9.

Question: Which pKa does the source give for Cc1ccnc2c1ccc1c(C)ccnc12 [b-6, 4,7-Dimethyl-1,10-phenanthroline] here?
Answer: Its pKa is 5.9.

Question: Which pKa does the source give for CCN1CCOCC1 [b-13, N-Ethylmorpholine] here?
Answer: The pKa was 7.7.

Question: For Cc1ccncc1 [b-8, 4-Methylpyridine], which pKa is on record?
Answer: Its pKa is 6.1.

Question: For Cc1ccc2ccc3ccc(C)nc3c2n1 [b-5, 2,9-Dimethyl-1,10-phenanthroline], which pKa is on record?
Answer: Its pKa is 5.9.

Question: With CN(C)c1cccnc1 [b-9, 3-(N,N-Dimethylamino)pyridine] as the compound, how does the pKa read?
Answer: The pKa was 6.5.

Question: Which pKa does the source give for CN(C)CCO [b-17, N,N-Dimethyl-2-aminoethanol] here?
Answer: Its pKa is 9.5.
